Assay results as given in ChEMBL document CHEMBL1201862, “PubChem BioAssay data set” (2004).
Active and inactive are the calls of the source.

Key:
[1] = molecular target: T1, Corticotropin-releasing factor receptor 2/Corticotropin-releasing factor-binding protein (Homo sapiens, UniProt P24387+Q13324); assay: activators of CRF receptor 2 with binding protein – uHTS hits, confirmation (AID 602473); format: functional; details: read-out: EC50_Mean
T1 sequence (Q13324 whole entry): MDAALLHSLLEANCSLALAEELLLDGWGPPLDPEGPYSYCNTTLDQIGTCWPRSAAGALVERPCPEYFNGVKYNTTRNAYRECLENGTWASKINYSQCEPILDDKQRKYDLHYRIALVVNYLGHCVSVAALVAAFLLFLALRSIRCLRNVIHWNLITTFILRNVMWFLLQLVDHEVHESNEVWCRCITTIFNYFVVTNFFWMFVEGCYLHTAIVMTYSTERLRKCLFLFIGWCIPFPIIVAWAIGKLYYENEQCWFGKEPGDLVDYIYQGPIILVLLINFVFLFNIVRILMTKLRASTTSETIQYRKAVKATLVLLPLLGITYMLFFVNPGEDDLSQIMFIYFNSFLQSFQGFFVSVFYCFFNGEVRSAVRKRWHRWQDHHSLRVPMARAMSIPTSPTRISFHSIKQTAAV
T1 sequence (P24387 whole entry): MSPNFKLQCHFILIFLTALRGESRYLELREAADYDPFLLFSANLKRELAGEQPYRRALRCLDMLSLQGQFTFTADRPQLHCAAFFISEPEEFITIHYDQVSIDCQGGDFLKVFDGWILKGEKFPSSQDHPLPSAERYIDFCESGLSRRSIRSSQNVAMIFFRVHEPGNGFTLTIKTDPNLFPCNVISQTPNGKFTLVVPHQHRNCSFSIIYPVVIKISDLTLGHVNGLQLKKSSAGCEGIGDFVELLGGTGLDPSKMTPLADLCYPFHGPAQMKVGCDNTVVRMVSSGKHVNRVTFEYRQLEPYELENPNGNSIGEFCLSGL

[2] = molecular target: T1, Corticotropin-releasing factor receptor 2/Corticotropin-releasing factor-binding protein; assay: Dose Response confirmation of uHTS hits for small molecule antagonists of the CRF-binding protein and CRF-R2 receptor complex.; format: functional; details: read-out: IC50_Mean
[3] = cells; format: functional, cell-based
[4] = cells; format: functional, cell-based; remark: listed apart in the source
[5] = molecular target: Dual specificity tyrosine-phosphorylation-regulated kinase 1A (Rattus norvegicus, UniProt Q63470); format: biochemical, Homo sapiens
[6] = molecular target: T2, Protein Tat (Human immunodeficiency virus type 1 group M subtype B (isolate HXB2)(HIV-1), UniProt P04608); format: functional;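 further: tat binding to TAR RNA read out by fluorescence polarization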
T2 sequence (P04608 whole entry): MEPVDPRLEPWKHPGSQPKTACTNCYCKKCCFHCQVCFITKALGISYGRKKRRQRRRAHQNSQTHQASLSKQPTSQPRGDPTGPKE

[7] = molecular target: T3, Estrogen receptor (Homo sapiens, UniProt P03372);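 further: potency for inhibiting coactivator peptide recruitment to the receptor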
T3 sequence (P03372 whole entry): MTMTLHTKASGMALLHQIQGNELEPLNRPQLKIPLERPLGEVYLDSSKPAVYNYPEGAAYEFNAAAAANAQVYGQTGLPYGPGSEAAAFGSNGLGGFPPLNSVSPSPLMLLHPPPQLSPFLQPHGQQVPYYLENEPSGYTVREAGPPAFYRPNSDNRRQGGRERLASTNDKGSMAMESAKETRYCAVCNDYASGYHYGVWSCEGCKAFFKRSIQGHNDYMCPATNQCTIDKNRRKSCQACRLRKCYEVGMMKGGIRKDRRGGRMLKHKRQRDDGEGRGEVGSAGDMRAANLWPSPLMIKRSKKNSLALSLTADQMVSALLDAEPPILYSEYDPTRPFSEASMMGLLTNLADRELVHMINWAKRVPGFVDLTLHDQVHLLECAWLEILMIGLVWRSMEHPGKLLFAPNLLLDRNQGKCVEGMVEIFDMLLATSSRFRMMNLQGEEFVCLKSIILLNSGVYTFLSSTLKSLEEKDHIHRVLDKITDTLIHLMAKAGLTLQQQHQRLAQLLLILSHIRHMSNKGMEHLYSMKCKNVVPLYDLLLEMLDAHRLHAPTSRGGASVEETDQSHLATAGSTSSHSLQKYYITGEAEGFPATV

[8] = molecular target: Paired box protein Pax-8 (Homo sapiens, UniProt Q06710); assay: inhibitors of PAX8-driven TPO luciferase reporter, dose response, RMG-I cells, cherry-pick (AID 687027); format: functional, cell-based;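 further: luciferase reporter driven by Pax8 target thyroperoxidase promoter measured by SteadyGlo luminescence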
Paired box protein Pax-8, sequence (Q06710 whole entry): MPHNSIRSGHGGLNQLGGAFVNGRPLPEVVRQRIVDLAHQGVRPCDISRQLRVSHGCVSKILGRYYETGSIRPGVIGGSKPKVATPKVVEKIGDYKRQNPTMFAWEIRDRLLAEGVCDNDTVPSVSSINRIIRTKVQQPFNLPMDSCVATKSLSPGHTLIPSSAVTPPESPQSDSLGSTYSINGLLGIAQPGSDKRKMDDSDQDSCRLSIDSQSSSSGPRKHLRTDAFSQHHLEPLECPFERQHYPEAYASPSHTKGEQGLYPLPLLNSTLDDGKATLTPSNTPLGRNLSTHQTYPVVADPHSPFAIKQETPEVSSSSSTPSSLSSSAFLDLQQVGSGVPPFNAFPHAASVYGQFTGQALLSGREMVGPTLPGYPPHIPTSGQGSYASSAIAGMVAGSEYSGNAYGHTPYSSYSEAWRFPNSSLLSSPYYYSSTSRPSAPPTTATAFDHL

[9] = NIH:OVCAR-3 ovarian cancer cell cytotoxicity, dose response, PAX8 inhibitor project, plate reader, dry powder samples (AID 743044); format: functional, cell-based

Row | Compound | EC50 [3] | EC50 [4] | IC50 [7] | other results
1 | COc1ccc(/C=C/C(=O)NCCSCc2ccco2)cc1OC | > 350 µM (not active) | > 350 µM (not active) |  | EC50 [1]: > 53 µM (inactive); IC50 [2]: > 47.1 µM (inactive)
2 | C=CCOc1ccc(/C=C2\SC(Nc3cccnc3)=NC2=O)cc1 | > 350 µM (not active) | > 350 µM (not active) |  | AC50 [5]: 2.93 µM (active)
3 | COc1ccccc1OCC(=O)N/N=C/c1c(O)ccc2ccccc12 | > 350 µM (not active) | 10.8 µM (active) |  | 
4 | FC(F)Oc1ccc(NC(S)=Nc2ccc3c[nH]nc3c2)cc1 | > 350 µM (not active) | > 350 µM (not active) |  | 
5 | CCOC(=O)/C=C1\SCC(=O)N1CC(=O)NC(C)c1ccc(F)cc1 (centres undefined) |  |  |  | IC50 [6]: > 100 µM (active)
6 | Fc1ccc(-c2nnc(-n3nnc4ccccc43)c3ccccc23)cc1 |  |  | 26.3 µM (active) | 
7 | Cc1cc(C)c(NC(=O)CSc2nc3ccc(NC(=O)CSc4nnnn4Cc4ccccc4)cc3s2)c(C)c1 |  |  | > 50 µM (not active) | 
8 | CCOC(=O)CCC(=O)Nc1ccccc1C(N)=O |  |  | > 50 µM (not active) | 
9 | Cc1ccc(-c2cc(C(=O)N3CCCCCC3)no2)cc1 | 10.2 µM (active) | > 350 µM (not active) |  | 
10 | C[C@@H]1CN([C@@H](C)CO)C(=O)Cc2cc(NC(=O)Nc3ccc(C(F)(F)F)cc3)ccc2O[C@H]1CN(C)C(=O)NC1CCCCC1 |  |  |  | AC50 [8]: 8.4 µM (active); AC50 [9]: 54 µM (active)
